Source: patent EP0855387A1, “2-ACYLAMINOBENZAMIDE DERIVATIVES AND PREVENTIVE AND REMEDY FOR DISEASES CAUSED BY THE SUPERMULTIPLICATION OF VASCULAR INTIMAL CELLS” (KISSEI PHARMACEUTICAL CO., LTD., priority 1995, dated 1997)
Where two headings read alike, the source gives them in different places.

What was measured:
[1] = system: Spontaneous hypertensive rat-derived vascular smooth muscle cells (VSMCs) in thoracic aorta; assay: Inhibition test on vascular smooth muscle cells proliferation (3H-thymidine incorporation); assay type: cell-based; conditions: Rattus norvegicus, VSMC
Description: Thus, the compounds of the present invention have a very potent inhibitory effect on vascular smooth muscle cells proliferation.
Spontaneous hypertensive rat-derived vascular smooth muscle cells (VSMCs) in thoracic aorta were isolated by explant technique. The VSMCs were placed into 96 wells at 5000 cells/well and incubated in DMEM containing 10 % fetal calf serum at 37 °C in 95 % air and 5 % carbon dioxide for 3 days. After the incubation, the medium was replaced with DMEM containing each compound and ^3H-thymidine, and then the VSMCs were incubated. 24 hours later, the incorporation of ^3H-thymidine into DNA was determined and the radioactivity was defined as proliferation inhibitory activity of VSMCs. The activity of each compound was shown as a concentration which reduced the radioactivity of non-treated group by 50 % (IC50).

[2] = system: thrombosis-induced neointimal hyperplasia in mouse femoral artery; assay: Inhibition test on neointimal hyperplasia (thrombosis-induced model); assay type: in vivo; conditions: oral, once a day for 3 weeks; dose reducing the neointimal area of the non-treated group by 50 %
Description: The effect of compounds in vivo was evaluated by using a model of thrombosis-induced neointimal hyperplasia in mouse femoral artery. Each compound was suspended in 0.5 % carboxymethylcellulose sodium solution and administered orally to mice once a day for 3 weeks. After final administration, the femoral artery was fixed and removed. Cross sections of vessels were made consecutively and the neointimal area induced and formed by thrombosis was measured. Inhibitory activity on neointimal hyperplasia of each compound was shown as a dose which reduced the area of the non-treated group by 50 % (ID50).

Acute toxicity test = assay type: in vivo; conditions: single oral administration, dose of 2000mg/kg; for death (dead mice): 2000 mg/kg
Description: The compounds represented by the general formula (I) of the present invention have an LD50 value extremely preferable to that of Tranilast and therefore are very safer compounds.
Male ICR nice were fasted for 4 hours. 2-(3,4-Dimethoxycinnamoylamino)benzamide was suspended in 0.5 % carboxymethylcellulose sodium and administered orally at doses of 300, 1000 and 2000mg/kg, respectively. Dead mice and abnormal behavior were not observed even in the group administered at a dose of 2000mg/kg.

[3] = system: restenosis after PTCA surgery; conditions: patients after PTCA surgery; incidence without the drug about 30-40%; cited from earlier work
[4] = 3H-thymidine incorporation into DNA, 24 hours incubation with compound, read-out: Concentration of 50% inhibitory activity (IC50)

COc1ccc(/C=C/C(=O)Nc2ccccc2C(N)=O)cc1OC [Compound 4, (E)-2-(3,4-Dimethoxycinnamoylamino)benzamide]
IC50 [1, 4]: 27 µM | Dose of 50% inhibitory activity (ID50) [2]: 1 mg/kg | abnormal behavior (Acute toxicity test; mice): not observed | death (dead mice) (Acute toxicity test; listed as 2-(3,4-Dimethoxycinnamoylamino)benzamide): not observed | death (dead mice) (Acute toxicity test; listed as 2-(3,4-dimethoxycinnamoylamino)benzamide): no death was observed

COc1ccc(C=CC(=O)Nc2ccccc2C(=O)O)cc1OC [Tranilast, 2-(3,4-dimethoxycinnamoylamino)benzoic acid, reference compound]
IC50 ([1]; in vitro, read-out: concentration exhibiting a 50% inhibitory activity on vascular smooth muscle cells proliferation): 231 µM | Dose of 50% inhibitory activity (ID50) [2]: 100 mg/kg | restenosis observed when administering after PTCA surgery [3]: 10-15%

CCOc1ccc(/C=C/C(=O)Nc2ccccc2C(N)=O)cc1OC [Compound 17, (E)-2-(4-Ethoxy-3-methoxycinnamoylamino)benzamide]
IC50 [1, 4]: 5 µM | Dose of 50% inhibitory activity (ID50) [2]: 1 mg/kg

CCOC(=O)c1ccccc1/C=C/C(=O)Nc1ccccc1C(N)=O [Compound 3, (E)-2-(2-Ethoxycarbonylcinnamoylamino)benzamide]
IC50 [1, 4]: 46 µM

CC(=O)c1ccc(/C=C/C(=O)Nc2ccccc2C(N)=O)cc1 [Compound 33, (E)-2-(4-Acetylcinnamoylamino)benzamide]
IC50 [1, 4]: 78 µM

CNC(=O)c1ccccc1NC(=O)/C=C/c1ccc(OC)c(OC)c1 [Compound 58, (E)-2-(3,4-Dimethoxycinnamoylamino)-N-methylbenzamide]
IC50 [1, 4]: 15 µM

CCOc1ccccc1/C=C/C(=O)Nc1ccccc1C(N)=O [Compound 21, (E)-2-(2-Ethoxycinnamoylamino)benzamide]
IC50 [1, 4]: 30 µM

COc1cc(/C=C/C(=O)Nc2ccccc2C(=O)NCCCCO)cc(OC)c1OC [Compound 48, (E)-N-(4-Hydroxybutyl)-2-(3,4,5-trimethoxycinnamoylamino)benzamide]
IC50 [1, 4]: 42 µM

COc1ccc(/C=C/C(=O)Nc2cc(OC)c(OC)cc2C(=O)NCCO)cc1OC [Compound 56, (E)-4,5-Dimethoxy-2-(3,4-dimethoxycinnamoylamino)-N-(2-hydroxyethyl)benzamide]
IC50 [1, 4]: 44 µM

COc1ccc(/C=C/C(=O)Nc2cc(OC)c(OC)cc2C(N)=O)cc1OC [Compound 66, (E)-4,5-Dimethoxy-2-(3,4-dimethoxycinnamoylamino)benzamide]
IC50 [1, 4]: 13 µM

COc1cc(/C=C/C(=O)Nc2ccccc2C(=O)NCCOCCO)cc(OC)c1OC [Compound 43, (E)-N-[2-(2-Hydroxyethoxy)ethyl]-2-(3,4,5-trimethoxycinnamoylamino)benzamide]
IC50 [1, 4]: 44 µM

CCOc1cc(/C=C/C(=O)Nc2ccccc2C(=O)NCCO)ccc1OC [Compound 49, (E)-2-(3-Ethoxy-4-methoxycinnamoylamino)-N-(2-hydroxyethyl)benzamide]
IC50 [1, 4]: 42 µM

COc1cc(NC(=O)/C=C/c2cc(OC)c(OC)c(OC)c2)c(C(N)=O)cc1OC [Compound 57, (E)-4,5-Dimethoxy-2-(3,4,5-trimethoxycinnamoylamino)benzamide]
IC50 [1, 4]: 9 µM

COc1ccc(/C=C/C(=O)Nc2ccccc2C(=O)NCC2CCCCC2)cc1OC [Compound 59, (E)-N-Cyclohexylmethyl-2-(3,4-dimethoxycinnamoylamino)benzamide]
IC50 [1, 4]: 4 µM

COc1cccc(/C=C/C(=O)Nc2ccccc2C(N)=O)c1 [Compound 11, (E)-2-(3-Methoxycinnamoylamino)benzamide]
IC50 [1, 4]: 9 µM

CCOc1ccc(/C=C/C(=O)Nc2ccccc2C(=O)NCCOCCO)cc1OC [Compound 44, (E)-2-(4-Ethoxy-3-methoxycinnamoylamino)-N-[2-(2-hydroxyethoxy)ethyl]benzamide]
IC50 [1, 4]: 58 µM

COc1ccc(/C=C/C(=O)Nc2ccccc2C(=O)NO)cc1OC [Compound 60, (E)-2-(3,4-Dimethoxycinnamoylamino)-N-hydroxybenzamide]
IC50 [1, 4]: 36 µM

NC(=O)c1ccccc1NC(=O)/C=C/c1ccc2c(c1)OCCO2 [Compound 38, (E)-2-(3,4-Ethylenedioxycinnamoylamino)benzamide]
IC50 [1, 4]: 58 µM
